Patent US20220378923A1, “BET DEGRADER” (KYOWA KIRIN CO., LTD., priority 2019, published 2022)

Tested on: DCAF16 KO SU-DHL-4 cells
Test: Inhibitory effect on cell viability using SU-DHL-4 DCAF16 knock out (KO) cell line (Test Example 6)
Type: cell-based, human
Settings: for Activity Attenuation Ratio: (SU-DHL-4 DCAF16 KO IC50)/(SU-DHL-4 WT IC50); for IC50: DCAF16 KO SU-DHL-4 cells, 72 hours, Cell Counting Kit-8, 50% inhibition of cell viability
Experimental: The human DLBCL cell line SU-DHL-4 was purchased from DSMZ. SU-DHL-4 was passaged using RPMI1640 medium containing 10 vol % FBS. After the Cas9 gene was introduced, the cells were cultured in the above medium containing 0.01 mg/mL blasticidin (InvivoGen, Cat No. ant-bl-1). After introduction of sgRNA, the cells were cultured in the above medium containing 0.0001 mg/mL puromycin dihydrochloride (SIGMA, Cat No. P9020-10 ML). The culture conditions were 37° C. and 5% CO2.
Edit-R Lentiviral hEF1α-Blast-Cas9 Nuclease Particles (Cat No. VCAS10126) was used as a lentivirus for expressing Cas9 in human cell lines. Three types of Edit-R Human DCAF16 Lentiviral sgRNA (Cat No. VSGH10142-246568260; DNA target sequence […] (SEQ ID NO: 1), Cat No. VSGH10142-246568262; DNA target sequence […] (SEQ ID NO: 2) and Cat No. VSGH10142-246568263; DNA target sequence […] (SEQ ID NO: 3)) were used as lentiviruses for introducing DCAF16 sgRNA. As a control, Edit-R Lentiviral sgRNA Non-targeting Control #1 (Cat No. VSGC10215) was used. All lentiviruses were purchased from Dharmacon and stored at −80° C. until use.
SU-DHL-4 was suspended at 4×10^5 cells/mL in RPMI 1640 without FBS, 0.25 mL of the suspension was added to a 24-well plate, and the cells were cultured overnight. The next day, 0.003 mL of virus particles of Edit-R Lentiviral hEF1α-Blast-Cas9 Nuclease Particles was added. After culturing in a CO2 incubator for 4 hours, RPMI 1640 containing 0.75 mL of 10 vol % FBS was added. After culturing in a CO2 incubator for about 48 hours, the medium was replaced with RPMI1640 containing 10 vol % FBS, and the cells were cultured in a CO2 incubator. Four days after infection, the medium was replaced with a medium containing 0.01 mg/mL blasticidin (InvivoGen, Cat No. ant-bl-1). Then, the cells were passaged once every 2 to 3 days and thus twice in total (that is, cultured for 1 week) to obtain SU-DHL-4/Cas9, which is a Cas9-introduced SU-DHL-4 cell line.
(6) sgRNA infection SU-DHL-4/Cas9 was suspended at 4×10^5 cells/mL in RPMI 1640 without FBS, 0.25 mL of the suspension was added to a 24-well plate, and the cells were cultured overnight. The next day, a total of 4 types of sgRNA virus particles, 1 type of Control and 3 types targeting DCAF16 were added to the respective wells by 0.03 mL. After culturing in a CO2 incubator for 5 hours, RPMI 1640 containing 0.75 mL of 10 vol % FBS was added.
After culturing in a CO2 incubator for about 48 hours, the medium was replaced with RPMI1640 containing 10 vol % FBS, and the cells were cultured in a CO2 incubator. Four days after infection, the medium was replaced with a medium supplemented with 0.01 mg/mL puromycin dihydrochloride (SIGMA, Cat No. P9020-10 ML). Then, the cells were passaged once or twice a week for 2 weeks, and a cell stock was prepared using CELLBANKER I plus (Takara Bio, Cat No. CB-021). Cell line stock was stored at −80° C. Using Edit-R Lentiviral sgRNA Non-targeting Control #1, the Negative Control sequence was introduced into the SU-DHL-4 cell line, which was referred to as SU-DHL-4 NC strain, and using Edit-R Human DCAF16 Lentiviral sgRNA, […] sequence (SEQ ID NO: 1) was introduced into the SU-DHL-4 cell line, which was referred to as SU-DHL-4 DCAF16 KO1 strain, […] sequence (SEQ ID NO: 2) was introduced into the SU-DHL-4 cell line, which was referred to as SU-DHL-4 DCAF16 KO2 strain, and […] sequence (SEQ ID NO: 3) was introduced into the SU-DHL-4 cell line, which was referred to as SU-DHL-4 DCAF16 KO 3 strain.
The cultured DCAF16 KO SU-DHL-4 cells were seeded at 2000 cells/well in a transparent 384-well plate (Code No. 781182, Greiner bio-one). After seeding, the cells were pre-cultured at 37° C. in a carbon dioxide gas incubator for 18 to 25 hours. […]

Row | SMILES | IC50 (Homo sapiens) [nM] | IC50 [nM] | Activity Attenuation Ratio
1 | CCC(=O)N1c2ccccc2[C@H](Nc2ccc(C(=O)NCCCNC(=O)c3ccc(N[C@@H]4C[C@H](C)N(C(=O)CC)c5ccccc54)cc3)cc2)C[C@@H]1C (relative stereo) [Compound 1a, N,N′-(Propane-1,3-diyl)bis(4-{[(2S*,4R*)-2-methyl-1-propionyl-1,2,3,4-tetrahydroquinolin-4-yl]amino}benzamide)] | 68.7 | – | 61
2 | CCC(=O)N1c2ccccc2[C@H](Nc2ccc(C(=O)NC3CCN(C(=O)c4ccc(N[C@@H]5C[C@H](C)N(C(=O)CC)c6ccccc65)cc4)CC3)cc2)C[C@@H]1C (relative stereo) [Compound 1c, 4-{[(2S*,4R*)-2-Methyl-1-propionyl-1,2,3,4-tetrahydroquinolin-4-yl]amino}-N-[1-(4-{[(2S*,4R*)-2-methyl-1-propionyl-1,2,3,4-tetrahydroquinolin-4-yl]amino}benzoyl)piperidin-4-yl]benzamide] | 385 | – | 131
3 | CCC(=O)N1c2ccccc2[C@H](Nc2ccc(NC(=O)CCNC(=O)c3ccc(N[C@@H]4C[C@H](C)N(C(=O)CC)c5ccccc54)cc3)cc2)C[C@@H]1C (relative stereo) [Compound 2f, 4-{[(2S,4R)-2-Methyl-1-propionyl-1,2,3,4-tetrahydroquinolin-4-yl]amino}-N-{3-[(4-{[(2S*,4R*)-2-methyl-1-propionyl-1,2,3,4-tetrahydroquinolin-4-yl]amino}phenyl)amino]-3-oxopropyl}benzamide] | 100 | – | 1111
4 | CCC(=O)N1c2ccccc2[C@H](Nc2ccc(NC(=O)C3CN(C(=O)c4ccc(N[C@@H]5C[C@H](C)N(C(=O)CC)c6ccccc65)cc4)C3)cc2)C[C@@H]1C (relative stereo) [Compound 2h, 1-(4-{[(2S,4R)-2-Methyl-1-propionyl-1,2,3,4-tetrahydroquinolin-4-yl]amino}benzoyl)-N-(4-{[(2S*,4R*)-2-methyl-1-propionyl-1,2,3,4-tetrahydroquinolin-4-yl]amino}phenyl)azetidine-3-carboxamide] | 12.2 | – | 408
5 | CCC(=O)N1c2ccccc2[C@H](Nc2ccc(NC(=O)CCSc3ccc(N[C@@H]4C[C@H](C)N(C(=O)CC)c5ccccc54)cc3)cc2)C[C@@H]1C (relative stereo) [Compound 4e, N-(4-{[(2S*,4R*)-2-Methyl-1-propionyl-1,2,3,4-tetrahydroquinolin-4-yl]amino}phenyl)-3-[(4-{[(2S,4R)-2-methyl-1-propionyl-1,2,3,4-tetrahydroquinolin-4-yl]amino}phenyl)thio]propanamide] | 75 | – | 250
6 | CCC(=O)N1c2ccccc2[C@H](Nc2ccc(NC(=O)N3CCN(C(=O)c4ccc(N[C@@H]5C[C@H](C)N(C(=O)CC)c6ccccc65)cc4)CC3)cc2)C[C@@H]1C (relative stereo) [Compound 6m, 4-(4-(((2S,4R)-2-Methyl-1-propionyl-1,2,3,4-tetrahydroquinolin-4-yl)amino)benzoyl)-N-(4-(((2S*,4R*)-2-methyl-1-propionyl-1,2,3,4-tetrahydroquinolin-4-yl)amino)phenyl)piperazine-1-carboxamide] | 90.3 | – | 1164
7 | CCC(=O)N1c2ccccc2[C@H](NCCCCC(=O)NCc2cn(-c3ccc(N[C@@H]4C[C@H](C)N(C(=O)CC)c5ccccc54)cc3)nn2)C[C@@H]1C (relative stereo) [Compound 12f, 5-(((2S*,4R*)-2-Methyl-1-propionyl-1,2,3,4-tetrahydroquinolin-4-yl)amino)-N-((1-(4-(((2S,4R)-2-methyl-1-propionyl-1,2,3,4-tetrahydroquinolin-4-yl)amino)phenyl)-1H-1,2,3-triazol-4-yl)methyl)pentane amide] | – | > 10000 | >40284

More lines, main results first:

Row | IC50 (Homo sapiens) [nM] | IC50 [nM] | SMILES | Activity Attenuation Ratio
8 | – | 26 | CCC(=O)N1c2ccccc2[C@H](Nc2ccc(NC(=O)C#CCNC(=O)C3CCC(N[C@@H]4C[C@H](C)N(C(=O)CC)c5ccccc54)CC3)cc2)C[C@@H]1C (relative stereo) [Compound 8g, (1R,4r)-4-(((2S*,4R*)-2-Methyl-1-propionyl-1,2,3,4-tetrahydroquinolin-4-yl)amino)-N-(4-((4-(((2S,4R)-2-methyl-1-propionyl-1,2,3,4-tetrahydroquinolin-4-yl)amino)phenyl)amino)-4-oxobut-2-yn-1-yl)cyclohexane-1-carboxamide] | 3174
9 | – | 263 | CCC(=O)N1c2ccccc2[C@H](N[C@H]2CC[C@H](NC(=O)C#CCNC(=O)[C@H]3CC[C@H](N[C@@H]4C[C@H](C)N(C(=O)CC)c5ccccc54)CC3)CC2)C[C@@H]1C (relative stereo) [Compound 9d, (1R,4R)-4-(((2S*,4R*)-2-Methyl-1-propionyl-1,2,3,4-tetrahydroquinolin-4-yl)amino)-N-(4-(((1R,4R)-4-(((2S,4R)-2-methyl-1-propionyl-1,2,3,4-tetrahydroquinolin-4-yl)amino)cyclohexyl)amino)-4-oxobut-2-yn-1-yl)cyclohexane-1-carboxamide] | 348
10 | 180 | – | CCC(=O)N1c2ccccc2[C@H](Nc2ccc(-n3cc(CNC(=O)N4CCC(N[C@@H]5C[C@H](C)N(C(=O)CC)c6ccccc65)CC4)nn3)cc2)C[C@@H]1C (relative stereo) [Compound 10b, 4-(((2S*,4R*)-2-Methyl-1-propionyl-1,2,3,4-tetrahydroquinolin-4-yl)amino)-N-((1-(4-(((2S,4R)-2-methyl-1-propionyl-1,2,3,4-tetrahydroquinolin-4-yl)amino)phenyl)-1H-1,2,3-triazol-4-yl)methyl)piperidine-1-carboxamide] | 524
11 | 142 | – | CCC(=O)N1c2ccccc2[C@H](NCc2ccc(C(=O)N3CC(C(=O)Nc4ccc(N[C@@H]5C[C@H](C)N(C(=O)CC)c6ccccc65)cc4)C3)cc2)C[C@@H]1C (relative stereo) [Compound 10g, 1-(4-((((2S*,4R*)-2-Methyl-1-propionyl-1,2,3,4-tetrahydroquinolin-4-yl)amino)methyl)benzoyl)-N-(4-(((2S,4R)-2-methyl-1-propionyl-1,2,3,4-tetrahydroquinolin-4-yl)amino)phenyl)azetidine-3-carboxamide] | 154
12 | 595 | – | CCC(=O)N1c2ccccc2[C@H](NCCCCCCCC(=O)Nc2ccc(N[C@@H]3C[C@H](C)N(C(=O)CC)c4ccccc43)cc2)C[C@@H]1C (relative stereo) [Compound 12h, 8-(((2S*,4R*)-2-Methyl-1-propionyl-1,2,3,4-tetrahydroquinolin-4-yl)amino)-N-(4-(((2S,4R)-2-methyl-1-propionyl-1,2,3,4-tetrahydroquinolin-4-yl)amino)phenyl)octanamide] | 191
